Data as given in patent US10899747B2, “Biaryl piperidine amide compounds and methods of use thereof” (Athenex, Inc., priority 2017, dated 2021).

Assays:
Format in all cases: cell-based
NFAT = experiment: TCR-NFAT (luciferase-based reporter assay); details: Homo sapiens; 50% inhibition concentration class
Procedure: Jurkat T cells are transiently transfected with a DNA plasmid encoding Firefly luciferase under the transcriptional control of an appropriate regulatory element that may include multimerized NFAT, AP-1, NFκB, or CREB binding sites. Cells are co-transfected with a DNA plasmid encoding Renilla luciferase under the transcriptional control of a constitutive regulatory element (e.g., HSV-TK promoter). 24 hours following transfection, cells are collected and re-seeded in 96-well plates at a final density of 1.0×10^6 cells/ml in 150 ul assay medium. Test compounds may be included at a final concentration of ≤20 uM and generally pre-incubated with cells for 30 minutes prior to stimulation. An appropriate stimulus is added, including but not limited to, a) phorbol myristate acetate (PMA) and ionomycin, or b) stimulatory antibodies to the TCR complex (e.g., anti-CD3ε) and CD28. Cell cultures are stimulated for 4-6 hours in a humidified incubator (37 degrees C./5% CO2). Cells are than lysed and the level of Firefly luciferase and Renilla Luciferase activity is determined using a standard assay (e.g., Promega's Dual Luciferase Reporter Assay System) and plate-reading luminometer. The ratio obtained by dividing activation induced Firefly luciferase activity by the constitutive Renilla luciferase activity is calculated and used as a quantitative measurement of cell activation.
Jurkat T cells were transiently transfected with a DNA plasmid encoding Firefly luciferase under the transcriptional control of an appropriate regulatory element that may include multimerized NFAT, AP-1, NFκB, or CREB binding sites. Cells were co-transfected with a DNA plasmid encoding Renilla luciferase under the transcriptional control of a constitutive regulatory element (e.g., HSV-TK promoter). 24 hours following transfection, cells were collected and re-seeded in 96-well plates at a final density of 1.0×10^6 cells/ml in 150 ul assay medium. Compound 413 was included at a final concentration of ≤20 uM and pre-incubated with cells for 30 minutes prior to stimulation. Mitogens PMA and ionomycin were added. Cell cultures were stimulated for 4-6 hours in a humidified incubator (37° C./5% CO2). Cells were then lysed and the level of Firefly luciferase and Renilla Luciferase activity was determined using a standard assay (e.g., Promega's Dual Luciferase Reporter Assay System) and plate-reading luminometer. The ratio obtained by dividing activation induced Firefly luciferase activity by the constitutive Renilla luciferase activity was calculated and used as a quantitative measurement of cell activation.

IL-2 [1] = experiment: PHA-IL2 (cell activation and cytokine analysis); details: 50% inhibition concentration class
How it was run: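 Cells were seeded in 96-well plates at 1.0-2.0×10^6 cells/ml in 150 ul of RPMI containing 0.5% fetal calf serum. Test compounds, at up to ≤20 uM, were preincubated with the cells for 30 minutes, then phytohemagglutinin (PHA) was added and cultures were stimulated for 24-48 hours at 37 degrees C./5% CO2. Supernatant IL-2 was then quantified by standard ELISA.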

IL-2 [2] = experiment: IL-2 secretion by ELISA in Jurkat T cells stimulated with PMA and ionomycin; details: Homo sapiens, supernatants harvested at 20 hours, read-out: concentration required to achieve 50% inhibition (IC50) of IL-2
Procedure: Jurkat (a transformed human T cell leukemia) cells were plated in 96-well plates at a final density of 1.0-2.0×10^6 cells/ml in 150 ul of assay medium (RPMI+0.5% fetal calf serum). Compounds 403 and 413 were included at a final concentration of ≤20 uM and pre-incubated with cells for 30 minutes prior to stimulation. Mitogens PMA and ionomycin were added to the T cell receptor (TCR) complex (e.g., anti-CD3c) and CD28. Cell cultures were stimulated for 24-48 hours in a humidified incubator (37 degrees C./5% CO2). A fraction of the culture supernatant was then harvested from each well and assayed for the presence of appropriate cytokine using standard ELISA. Cytokines analyzed was IL-2. If required, the number of cytokine producing cells can be determined using intracellular staining and flow cytometry.
More specifically, Jurkat T cells were stimulated with the mitogens PMA and ionomycin in the presence of varying concentrations of compound 403 or compound 413. Supernatants were harvested at 20 hours and analyzed for IL-2 content by ELISA. IL-2 values obtained from vehicle (DMSO) treated control wells (˜2800 pg/ml) were assigned a value of 100% and used to calculate the % inhibition achieved for each compound.

Row | Compound | IC50 (NFAT) | IC50 (IL-2 [1]) | IC50 (IL-2 [2])
1 | O=C(NCc1cccnc1)c1ccc(CCC2CCN(C(=O)COc3ccccc3-c3ccccc3)CC2)cc1 [Compound 103] | 1 to 10 µM |  | 
2 | Cc1cc(OC(F)(F)F)ccc1CCC1CCN(C(=O)COc2ccccc2-c2ccccc2)CC1 [Compound 116] | 10 to 50 µM |  | 
3 | O=C(COc1ccc(F)cc1-c1ccccc1)N1CCC(CCc2ccc3c(c2)OCO3)CC1 [Compound 152] | 10 to 50 µM |  | 
4 | COc1ccc(CCC2CCN(C(=O)COc3cc(F)c(F)cc3-c3ccccc3)CC2)cc1OC [Compound 142] | 1 to 10 µM |  | 
5 | O=C(COc1ccccc1-c1ccccc1)N1CCC(CCc2ccccc2OC(F)(F)F)CC1 [Compound 122] | 10 to 50 µM |  | 
6 | CC(C)Oc1cccc(CCC2CCN(C(=O)COc3ccccc3-c3ccc(C#N)cc3)CC2)c1 [Compound 403] |  | < 1000 nM | 68 nM
7 | Cc1ccc(F)cc1CCC1CCN(C(=O)COc2ccccc2-c2ccccc2)CC1 [Compound 113] | 1 to 10 µM |  | 
8 | O=C(NCc1ccccn1)c1ccc(CCC2CCN(C(=O)COc3ccccc3-c3ccccc3)CC2)cc1 [Compound 102] | 1 to 10 µM |  | 
9 | COc1ccc(CCC2CCN(C(=O)C(C)Oc3ccccc3-c3ccccc3)CC2)cc1OC (stereo not drawn) [Compound 144] | 1 to 10 µM |  | 
10 | O=C(COc1c(F)cccc1-c1ccccc1)N1CCC(CCc2cc(F)cc(F)c2)CC1 [Compound 135] | 10 to 50 µM |  | 
11 | O=C(COc1ccccc1-c1ccccc1)N1CCC(CCc2cc(F)ccc2F)CC1 [Compound 123] | 10 to 50 µM |  | 
12 | CCCC(Oc1ccccc1-c1ccccc1)C(=O)N1CCC(CCc2ccc(OC)c(OC)c2)CC1 (stereo not drawn) [Compound 145] | 1 to 10 µM |  | 
13 | O=C(COc1cc(OC(F)(F)F)ccc1-c1ccccc1)N1CCC(CCc2ccc3c(c2)OCO3)CC1 [Compound 150] | 10 to 50 µM |  | 
14 | O=C(COc1ccccc1-c1ccccc1)N1CCC(CCc2ccc3c(c2)OCO3)CC1 [Compound 105] | 1 to 10 µM | < 1000 nM | 
15 | COc1ccc(CCC2CCN(C(=O)COc3c(C)cccc3-c3ccccc3)CC2)cc1OC [Compound 138] | 1 to 10 µM |  | 
16 | O=C(COc1c(F)cccc1-c1ccccc1)N1CCC(CCc2ccc(F)cc2)CC1 [Compound 136] | 10 to 50 µM |  | 
17 | O=C(NCc1ccncc1)c1ccc(CCC2CCN(C(=O)COc3ccccc3-c3ccccc3)CC2)cc1 [Compound 104] | 1 to 10 µM |  | 
18 | O=C(COc1ccccc1-c1ccccc1O)N1CCC(CCc2ccc3c(c2)OCO3)CC1 [Compound 169] | < 1 µM | < 1000 nM | 
19 | O=C(COc1ccccc1-c1ccccc1)N1CCC(CCc2cc(F)c(O)c(F)c2)CC1 [Compound 124] | 10 to 50 µM | < 1000 nM | 
20 | O=C(COc1ccccc1-c1ccccc1)N1CCC(CCc2ccc(F)c(C(F)(F)F)c2)CC1 [Compound 121] | 10 to 50 µM |  | 
21 | O=C(COc1ccccc1-c1ccccc1)N1CCC(CCc2cccc(C(F)(F)F)c2)CC1 [Compound 127] | 10 to 50 µM |  | 
22 | O=C(COc1ccccc1-c1ccccc1)N1CCC(CCc2ccc3c(c2)OCCO3)CC1 [Compound 114] | 1 to 10 µM | < 1000 nM | 
23 | O=C(/C=C/c1cc2c(cc1-c1ccccc1)OCO2)N1CCC(CCc2ccc(O)cc2)CC1 [Compound 111] | 1 to 10 µM | 1000 to 10000 nM | 
24 | O=C(COc1ccccc1-c1ccccc1)N1CCC(CCc2cc(F)cc(F)c2)CC1 [Compound 106] | 1 to 10 µM |  | 
25 | COc1ccc(CCC2CCN(C(=O)COc3cccnc3-c3ccccc3)CC2)cc1OC [Compound 141] | 10 to 50 µM | 1000 to 10000 nM | 
26 | O=C(COc1cc(F)c(F)cc1-c1ccccc1)N1CCC(CCc2ccc(F)cc2)CC1 [Compound 137] | 10 to 50 µM |  | 
27 | O=C(COc1cc(F)ccc1-c1ccccc1)N1CCC(CCc2ccc3c(c2)OCO3)CC1 [Compound 151] | 10 to 50 µM |  | 
28 | O=C(CCc1cc2c(cc1-c1ccccc1)OCO2)N1CCC(CCc2ccc(O)cc2)CC1 [Compound 132] | 10 to 50 µM |  | 
29 | COc1ccc(CCC2CCN(C(=O)COc3c(F)cccc3-c3ccccc3)CC2)cc1OC [Compound 133] | 10 to 50 µM |  | 
30 | O=C(COc1cc(F)c(F)cc1-c1ccccc1)N1CCC(CCc2cc(F)cc(F)c2)CC1 [Compound 143] | 10 to 50 µM |  | 

Next, values leading:

Row | IC50 (NFAT) | IC50 (IL-2 [1]) | IC50 (IL-2 [2]) | Compound
31 | 10 to 50 µM |  |  | COc1ccc(CO)cc1CCC1CCN(C(=O)COc2ccccc2-c2ccccc2)CC1 [Compound 125]
32 | 1 to 10 µM | 1000 to 10000 nM |  | CC(C)NC(=O)c1ccc(CCC2CCN(C(=O)COc3ccccc3-c3ccccc3)CC2)cc1 [Compound 148]
33 | 1 to 10 µM |  |  | COc1ccc(CCC2CCN(C(=O)COc3ccccc3-c3ccccc3)CC2)cc1 [Compound 108]
34 | 10 to 50 µM |  |  | COc1ccc(CCC2CCN(C(=O)COc3c(F)cccc3-c3ccccc3)CC2)cc1 [Compound 134]
35 | 1 to 10 µM |  |  | COCc1ccc(CCC2CCN(C(=O)COc3ccccc3-c3ccccc3)CC2)cc1 [Compound 146]
36 | 10 to 50 µM |  |  | O=C(O)c1ccc(CCC2CCN(C(=O)COc3ccccc3-c3ccccc3)CC2)cc1 [Compound 110]
37 | 1 to 10 µM | < 1000 nM |  | O=C(COc1ccccc1-c1ccccc1)N1CCC(CCc2ccc(O)cc2)CC1 [Compound 100]
38 | 10 to 50 µM |  |  | COc1ccc(CCC2CCN(C(=O)COc3c(C)cccc3-c3ccccc3)CC2)cc1 [Compound 139]
39 | 1 to 10 µM |  |  | CC(C)(C)NC(=O)c1ccc(CCC2CCN(C(=O)COc3ccccc3-c3ccccc3)CC2)cc1 [Compound 149]
40 | 10 to 50 µM |  |  | O=C(COc1ccccc1-c1ccccc1)N1CCC(CCc2cccc(CO)c2)CC1 [Compound 131]
41 | 10 to 50 µM |  |  | COc1cccc(CCC2CCN(C(=O)COc3ccccc3-c3ccccc3)CC2)c1 [Compound 128]
42 | 1 to 10 µM |  |  | COc1ccc(CCC2CCN(C(=O)COc3ccccc3-c3ccccc3)CC2)c(OC)c1 [Compound 119]
43 | 10 to 50 µM |  |  | CCOc1ccc(CCC2CCN(C(=O)COc3ccccc3-c3ccccc3)CC2)cc1 [Compound 129]
44 | 10 to 50 µM |  |  | O=C(COc1ccccc1-c1ccccc1)N1CCC(CCc2cccc(F)c2)CC1 [Compound 130]
45 | 1 to 10 µM |  |  | CN(C)C(=O)c1ccc(CCC2CCN(C(=O)COc3ccccc3-c3ccccc3)CC2)cc1 [Compound 147]
46 | 10 to 50 µM |  |  | O=C(COc1ccccc1-c1ccccc1)N1CCC(CCc2ccc(F)cc2)CC1 [Compound 107]
47 | 10 to 50 µM | 1000 to 10000 nM |  | O=C(COc1ccccc1-c1ccccc1)N1CCC(CCc2ccccc2)CC1 [Compound 118]
48 | 1 to 10 µM |  |  | COc1ccc(CCC2CCN(C(=O)COc3ccccc3-c3ccccc3)CC2)cc1OC [Compound 109]
49 | 1 to 10 µM |  |  | O=C(COc1ccccc1-c1ccccc1)N1CCC(CCc2ccc(N3CCOCC3)cc2)CC1 [Compound 112]
50 | < 1 µM | < 1000 nM |  | COC(=O)c1ccc(CCC2CCN(C(=O)COc3ccccc3-c3ccccc3)CC2)cc1 [Compound 101]
51 | 1 to 10 µM |  |  | O=C(COc1ccccc1-c1ccccc1)N1CCC(CCc2ccc(OC(F)(F)F)cc2)CC1 [Compound 115]
52 | 10 to 50 µM |  |  | Cc1cccc(-c2ccccc2)c1OCC(=O)N1CCC(CCc2ccc(F)cc2)CC1 [Compound 140]
